Calls of active or inactive are those of the source.
How the values were obtained:
Echinochloa crus-galli [1] = assay: Pre-emergence herbicidal activity against Echinochloa crus-galli (barnyard grass) assessed as mortality at 6.3 g a.i/10 a; type: functional; settings: Echinochloa crus-galli, pre-emergence
Xanthium strumarium [2] = assay: Post-emergence herbicidal activity against Xanthium strumarium (cocklebur) assessed as mortality at 6.3 g a.i/10 a applied 11 days after germination as foliar spray; type: functional; settings: 264 h
Gossypium hirsutum [3] = assay: Pre-emergence phytotoxicity against Gossypium hirsutum (cotton) assessed as mortality at 6.3 g a.i/10 a; type: organism-based; settings: in vivo, other
Glycine max [4] = assay: Pre-emergence phytotoxicity against Glycine max (soybean) assessed as mortality at 1.6 g a.i/10 a; type: organism-based; settings: in vivo, other
Glycine max [5] = assay: Pre-emergence phytotoxicity against Glycine max (soybean) assessed as mortality at 6.3 g a.i/10 a; type: organism-based; settings: in vivo, other
[6] = Pre-emergence phytotoxicity against Zea mays (maize) assessed as mortality at 1.6 g a.i/10 a; type: organism-based; settings: in vivo, 1.6 g a.i/10 a, read-out: mortality
Gossypium hirsutum [7] = assay: Post-emergence phytotoxicity against Gossypium hirsutum (cotton) assessed as mortality at 1.6 g a.i/10 a applied 11 days after germination as foliar spray; type: organism-based; settings: in vivo, other, 264 h
Gossypium hirsutum [8] = assay: Post-emergence phytotoxicity against Gossypium hirsutum (cotton) assessed as mortality at 6.3 g a.i/10 a applied 11 days after germination as foliar spray; type: organism-based; settings: in vivo, other, 264 h
Glycine max [9] = assay: Post-emergence phytotoxicity against Glycine max (soybean) assessed as mortality at 6.3 g a.i/10 a applied 11 days after germination as foliar spray; type: organism-based; settings: in vivo, other, 264 h
Glycine max [10] = assay: Post-emergence phytotoxicity against Glycine max (soybean) assessed as mortality at 1.6 g a.i/10 a applied 11 days after germination as foliar spray; type: organism-based; settings: in vivo, other, 264 h
Zea mays [11] = assay: Post-emergence phytotoxicity against Zea mays (maize) assessed as mortality at 1.6 g a.i/10 a applied 11 days after germination as foliar spray; type: organism-based; settings: in vivo, other, 264 h
Zea mays [12] = assay: Post-emergence phytotoxicity against Zea mays (maize) assessed as mortality at 6.3 g a.i/10 a applied 11 days after germination as foliar spray; type: organism-based; settings: in vivo, other, 264 h
Xanthium strumarium [13] = assay: Post-emergence herbicidal activity against Xanthium strumarium (cocklebur) assessed as mortality at 1.6 g a.i/10 a applied 11 days after germination as foliar spray; type: functional; settings: 264 h
Cyperus iria [14] = assay: Pre-emergence herbicidal activity against Cyperus iria assessed as growth inhibition at 25 g a.i/10 a; type: functional, organism-based
Chenopodium album [15] = assay: Pre-emergence herbicidal activity against Chenopodium album assessed as growth inhibition at 25 g a.i/10 a; type: functional, organism-based
Amaranthus retroflexus [16] = assay: Pre-emergence herbicidal activity against Amaranthus retroflexus assessed as growth inhibition at 25 g a.i/10 a; type: functional, organism-based
Persicaria nodosa [17] = assay: Pre-emergence herbicidal activity against Persicaria nodosa assessed as growth inhibition at 25 g a.i/10 a; type: functional, organism-based
Digitaria sanguinalis [18] = assay: Pre-emergence herbicidal activity against Digitaria sanguinalis (hairy crabgrass) assessed as growth inhibition at 25 g a.i/10 a; type: functional, organism-based
Echinochloa crus-galli [19] = assay: Pre-emergence herbicidal activity against Echinochloa crus-galli (barnyard grass) assessed as growth inhibition at 25 g a.i/10 a; type: functional, organism-based
Cyperus iria [20] = assay: Post-emergence herbicidal activity against Cyperus iria assessed as growth inhibition at 25 g a.i/10 a applied 11 days after germination as foliar spray; type: functional, organism-based
Chenopodium album [21] = assay: Post-emergence herbicidal activity against Chenopodium album assessed as growth inhibition at 25 g a.i/10 a applied 11 days after germination as foliar spray; type: functional, organism-based
Amaranthus retroflexus [22] = assay: Post-emergence herbicidal activity against Amaranthus retroflexus assessed as growth inhibition at 25 g a.i/10 a applied 11 days after germination as foliar spray; type: functional, organism-based
Persicaria nodosa [23] = assay: Post-emergence herbicidal activity against Persicaria nodosa assessed as growth inhibition at 25 g a.i/10 a applied 11 days after germination as foliar spray; type: functional, organism-based
Digitaria sanguinalis [24] = assay: Post-emergence herbicidal activity against Digitaria sanguinalis (hairy crabgrass) assessed as growth inhibition at 25 g a.i/10 a applied 11 days after germination as foliar spray; type: functional, organism-based
Echinochloa crus-galli [25] = assay: Post-emergence herbicidal activity against Echinochloa crus-galli (barnyard grass) assessed as growth inhibition at 25 g a.i/10 a applied 11 days after germination as foliar spray; type: functional, organism-based
Xanthium strumarium [26] = assay: Pre-emergence herbicidal activity against Xanthium strumarium (cocklebur) assessed as mortality at 1.6 g a.i/10 a; type: functional; settings: Xanthium strumarium, pre-emergence
Xanthium strumarium [27] = assay: Pre-emergence herbicidal activity against Xanthium strumarium (cocklebur) assessed as mortality at 6.3 g a.i/10 a; type: functional; settings: Xanthium strumarium, pre-emergence
Ipomoea lacunosa [28] = assay: Pre-emergence herbicidal activity against Ipomoea lacunosa assessed as mortality at 1.6 g a.i/10 a; type: functional; settings: Ipomoea lacunosa, pre-emergence
Ipomoea lacunosa [29] = assay: Pre-emergence herbicidal activity against Ipomoea lacunosa assessed as mortality at 6.3 g a.i/10 a; type: functional; settings: Ipomoea lacunosa, pre-emergence
Abutilon theophrasti [30] = assay: Pre-emergence herbicidal activity against Abutilon theophrasti (velvetleaf) assessed as mortality at 1.6 g a.i/10 a; type: functional; settings: Abutilon theophrasti, pre-emergence
Abutilon theophrasti [31] = assay: Pre-emergence herbicidal activity against Abutilon theophrasti (velvetleaf) assessed as mortality at 6.3 g a.i/10 a; type: functional; settings: Abutilon theophrasti, pre-emergence
Echinochloa crus-galli [32] = assay: Pre-emergence herbicidal activity against Echinochloa crus-galli (barnyard grass) assessed as mortality at 1.6 g a.i/10 a; type: functional; settings: Echinochloa crus-galli, pre-emergence
[33] = Pre-emergence phytotoxicity against Glycine max (soybean) assessed as mortality at 100 g a.i/10 a; type: organism-based; settings: in vivo
Glycine max [34] = assay: Pre-emergence phytotoxicity against Glycine max (soybean) assessed as mortality at 200 g a.i/10 a; type: organism-based; settings: in vivo, other
Xanthium strumarium [35] = assay: Pre-emergence herbicidal activity against Xanthium strumarium (cocklebur) assessed as mortality at 100 g a.i/10 a; type: functional
Xanthium strumarium [36] = assay: Pre-emergence herbicidal activity against Xanthium strumarium (cocklebur) assessed as mortality at 200 g a.i/10 a; type: functional, organism-based
Ipomoea lacunosa [37] = assay: Pre-emergence herbicidal activity against Ipomoea lacunosa assessed as mortality at 100 g a.i/10 a; type: functional
Ipomoea lacunosa [38] = assay: Pre-emergence herbicidal activity against Ipomoea lacunosa assessed as mortality at 200 g a.i/10 a; type: functional
Abutilon theophrasti [39] = assay: Pre-emergence herbicidal activity against Abutilon theophrasti (velvetleaf) assessed as mortality at 100 g a.i/10 a; type: functional
Abutilon theophrasti [40] = assay: Pre-emergence herbicidal activity against Abutilon theophrasti (velvetleaf) assessed as mortality at 200 g a.i/10 a; type: functional
Echinochloa crus-galli [41] = assay: Pre-emergence herbicidal activity against Echinochloa crus-galli (barnyard grass) assessed as mortality at 100 g a.i/10 a; type: functional
Echinochloa crus-galli [42] = assay: Pre-emergence herbicidal activity against Echinochloa crus-galli (barnyard grass) assessed as mortality at 200 g a.i/10 a; type: functional, organism-based

COC(=O)c1cccc(Oc2nc(OC)cc(OC)n2)c1C(=O)O
active: growth inhibition (GI) (Cyperus iria [14]) | growth inhibition (GI) (Chenopodium album [15]) | growth inhibition (GI) (Amaranthus retroflexus [16]) | growth inhibition (GI) (Persicaria nodosa [17]) | growth inhibition (GI) (Digitaria sanguinalis [18]) | growth inhibition (GI) (Cyperus iria [20]) | growth inhibition (GI) (Chenopodium album [21]) | growth inhibition (GI) (Amaranthus retroflexus [22]) | growth inhibition (GI) (Persicaria nodosa [23]) | growth inhibition (GI) (Digitaria sanguinalis [24]) | growth inhibition (GI) (Echinochloa crus-galli [25])
Non-toxic: Activity (Gossypium hirsutum [3]) | Activity (Glycine max [4]) | Activity (Glycine max [5])
< 5%: mortality at 63 g/ha (Echinochloa crus-galli [1]) | mortality at 63 g/ha (Xanthium strumarium [2]) | mortality [6] | mortality at 16 g/ha (Xanthium strumarium [13]) | mortality at 16 g/ha (Xanthium strumarium [26]) | mortality at 63 g/ha (Xanthium strumarium [27]) | mortality at 16 g/ha (Ipomoea lacunosa [28]) | mortality at 63 g/ha (Ipomoea lacunosa [29]) | mortality at 16 g/ha (Abutilon theophrasti [30]) | mortality at 63 g/ha (Abutilon theophrasti [31]) | mortality at 16 g/ha (Echinochloa crus-galli [32])
inactive: growth inhibition (GI) (Echinochloa crus-galli [19])
Toxic: Activity (Gossypium hirsutum [7]) | Activity (Gossypium hirsutum [8]) | Activity (Glycine max [9]) | Activity (Glycine max [10]) | Activity (Zea mays [11]) | Activity (Zea mays [12])

CN(C)C(=O)Nc1cccc(C(F)(F)F)c1 [FLUOMETURON]
active: Activity (Echinochloa crus-galli [42])
inactive: Activity (Xanthium strumarium [36])
< 5%: mortality [33] | mortality at 1000 g/ha (Xanthium strumarium [35]) | mortality at 1000 g/ha (Ipomoea lacunosa [37]) | mortality at 2000 g/ha (Ipomoea lacunosa [38]) | mortality at 1000 g/ha (Abutilon theophrasti [39]) | mortality at 2000 g/ha (Abutilon theophrasti [40]) | mortality at 1000 g/ha (Echinochloa crus-galli [41])
Toxic: Activity (Glycine max [34])

From ChEMBL document CHEMBL3046894, “Synthesis and Herbicidal Activity of Pyrimidinyl Salicylic and Thiosalicylic Acids” (J Pestic Sci, 1996)
